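Method: 48-hour compound exposure of cells in 96-well plates, five concentrations, linear interpolation of endpoints. GI50 is the concentration that inhibits growth by half. TGI: total growth inhibition.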
Columns and labels:
Experiment in all cases: DTP human tumour cell line panel, 48 h
SK-OV-3 ovarian = test system: SK-OV-3 ovarian
NCI-H460 lung = test system: NCI-H460 lung
HOP-62 NSCLC = test system: HOP-62 NSCLC
KM12 colon = test system: KM12 colon
IGROV1 ovarian = test system: IGROV1 ovarian
HCT-15 colon = test system: HCT-15 colon
SF-539 CNS = test system: SF-539 CNS
HCT-116 colon = test system: HCT-116 colon
UACC-257 melanoma = test system: UACC-257 melanoma
K-562 leukemia = test system: K-562 leukemia

Row | SMILES | GI50 (SK-OV-3 ovarian) | TGI (SK-OV-3 ovarian) | GI50 (NCI-H460 lung) | TGI (NCI-H460 lung) | GI50 (HOP-62 NSCLC) | TGI (HOP-62 NSCLC) | GI50 (KM12 colon) | TGI (KM12 colon) | GI50 (IGROV1 ovarian) | TGI (IGROV1 ovarian) | GI50 (HCT-15 colon) | TGI (HCT-15 colon) | GI50 (SF-539 CNS) | TGI (SF-539 CNS) | GI50 (HCT-116 colon) | TGI (HCT-116 colon) | GI50 (UACC-257 melanoma) | TGI (UACC-257 melanoma) | GI50 (K-562 leukemia) | TGI (K-562 leukemia)
1 | COC1=CC(c2ccc[nH]2)=N/C1=C\c1[nH]c(C)c(C(=O)OCc2ccccc2)c1C | 0.824 µM | 4.86 µM | 0.0476 µM | 1.2 µM | 0.314 µM | 2.77 µM | 0.0525 µM | 1.52 µM | 0.286 µM | 9 µM | 0.0333 µM | 1.09 µM | 0.111 µM | 1.54 µM | 0.0321 µM | 1.16 µM | 0.316 µM | 1.83 µM | 0.0855 µM | 1.46 µM
2 | CCCN(CCC)CCCNCc1cc(I)cc(C)c1O | 16.3 µM | 31 µM | 13.3 µM | 26 µM | 13.4 µM | 26.2 µM | 15 µM | 30 µM | 15.6 µM | 29.6 µM | 15.3 µM | 29.7 µM | 14.7 µM | 27.9 µM | 7.9 µM | 20.5 µM | 11.5 µM | 27.7 µM | 6.12 µM | 19.4 µM
3 | COc1ccc2c(c1)C(=O)c1c-2n(CCCN)c(=O)c2ccccc12 | < 0.0202 µM | 0.0652 µM | < 0.01 µM | 0.0402 µM | < 0.0152 µM | 0.0942 µM | 0.0144 µM | 0.0784 µM | < 0.0138 µM | 0.689 µM | 0.0179 µM | 0.265 µM | 0.0609 µM | 0.646 µM | < 0.0115 µM | 0.148 µM | 0.383 µM | 2.07 µM | < 0.01 µM | 0.187 µM
4 | C=CCC1OC(C)(C)Oc2ccc(OCOCCOC)cc21 (stereo not given) | – | > 100 µM | – | > 100 µM | – | > 100 µM | – | > 100 µM | – | > 100 µM | – | > 100 µM | – | > 100 µM | – | > 100 µM | – | > 100 µM | – | > 100 µM
5 | CO[C@H](C(=O)[C@@H](O)[C@@H](C)O)[C@@H]1Cc2cc3cc(O[C@H]4C[C@@H](O[C@H]5C[C@@H](O)[C@H](O)C(C)O5)[C@H](O)C(C)O4)c(C)c(O)c3c(O)c2C(=O)[C@H]1O[C@H]1C[C@@H](O[C@H]2C[C@@H](O[C@H]3C[C@@H](OC)[C@H](O)C(C)O3)[C@@H](O)C(C)O2)C(O)(O)C(C)O1 (stereo not given in full) | 0.113 µM | > 25 µM | 0.033 µM | > 25 µM | 0.0513 µM | > 25 µM | 0.102 µM | > 25 µM | 0.116 µM | > 25 µM | 2.65 µM | > 25 µM | 0.0938 µM | 1.68 µM | 0.035 µM | > 25 µM | 0.0371 µM | 0.511 µM | 0.19 µM | > 25 µM
6 | C[n+]1c(/C=C\C=C\N2CCCCC2)sc2ccccc21 | 0.794 µM | 6.79 µM | 0.489 µM | 4.37 µM | 2.26 µM | > 38.2 µM | 0.27 µM | 3.02 µM | 0.84 µM | 33.8 µM | 10.9 µM | 49.2 µM | 1.03 µM | 15 µM | 0.308 µM | > 32.1 µM | 0.278 µM | 2.18 µM | 0.172 µM | 12.7 µM
7 | NS(=O)(=O)c1ccc(NC(=O)c2ccc(NC3=C(Cl)C(=O)N(Cc4ccccc4)C3=O)cc2)cc1 | 41 µM | > 100 µM | 5.07 µM | > 100 µM | 10.4 µM | 22.1 µM | 48.7 µM | > 100 µM | 3 µM | > 100 µM | 13.7 µM | 69.4 µM | 4.59 µM | 22 µM | 2.68 µM | 10.3 µM | 18.2 µM | 56.7 µM | 3.26 µM | > 100 µM
8 | Cc1ccccc1NC(=S)Nc1ccccn1 | > 100 µM | > 100 µM | > 100 µM | > 100 µM | > 100 µM | > 100 µM | > 100 µM | > 100 µM | > 100 µM | > 100 µM | > 100 µM | > 100 µM | > 100 µM | > 100 µM | > 100 µM | > 100 µM | > 100 µM | > 100 µM | > 100 µM | > 100 µM
9 | CCC[CH2][Sn]([CH2]CCC)([O]C(=O)c1c(F)cccc1F)[O]C(=O)c1c(F)cccc1F | 1.82 µM | 3.24 µM | 1.54 µM | 2.9 µM | 2.22 µM | 3.69 µM | 1.51 µM | 2.83 µM | 1.39 µM | 3 µM | 1.09 µM | 2.28 µM | 1.02 µM | 2.2 µM | 1.02 µM | 2.25 µM | 0.671 µM | 1.99 µM | 0.355 µM | > 100 µM
10 | O=P([O-])(O)OP(=O)([O-])O.[NH-][C@H]1CCCC[C@@H]1[NH-].[OH-].[OH-].[Pt+4] | 19.9 µM | 38.6 µM | 34.5 µM | > 100 µM | 19.3 µM | 35.4 µM | > 100 µM | > 100 µM | 21.8 µM | 60.4 µM | 39.9 µM | > 100 µM | 22.3 µM | 57.6 µM | 37.1 µM | > 100 µM | 37 µM | > 100 µM | 92.9 µM | > 100 µM
11 | CCN(CC)CCNC(=O)c1ccccc1NC(=O)C(=O)Nc1ccccc1C(=O)NCCN(CC)CC | – | > 100 µM | – | > 100 µM | – | > 100 µM | – | > 100 µM | – | > 100 µM | – | > 100 µM | – | 62.2 µM | – | 43.3 µM | – | 35.5 µM | – | 42.1 µM

Reference: PubChem BioAssay (NCI)
